Laboratory results reported in patent publication US20250059182A1, “SOS1 INHIBITORS” (Mirati Therapeutics, Inc., priority 2021, published 2025).

Key:
[1] = biological target: T1, recombinant human SOS1 polypeptide (amino acids 560-1049) (Homo sapiens, UniProt Q07889); assay: HTRF displacement assay: inhibition of labeled tracer binding to SOS1; conditions: Table A, Morrison equation for competitive binding
T1 construct: corresponding to amino acids 560-1049, expressed in E. Coli; made in house; host or cells: E. coli
T1 sequence (Q07889 560-1049): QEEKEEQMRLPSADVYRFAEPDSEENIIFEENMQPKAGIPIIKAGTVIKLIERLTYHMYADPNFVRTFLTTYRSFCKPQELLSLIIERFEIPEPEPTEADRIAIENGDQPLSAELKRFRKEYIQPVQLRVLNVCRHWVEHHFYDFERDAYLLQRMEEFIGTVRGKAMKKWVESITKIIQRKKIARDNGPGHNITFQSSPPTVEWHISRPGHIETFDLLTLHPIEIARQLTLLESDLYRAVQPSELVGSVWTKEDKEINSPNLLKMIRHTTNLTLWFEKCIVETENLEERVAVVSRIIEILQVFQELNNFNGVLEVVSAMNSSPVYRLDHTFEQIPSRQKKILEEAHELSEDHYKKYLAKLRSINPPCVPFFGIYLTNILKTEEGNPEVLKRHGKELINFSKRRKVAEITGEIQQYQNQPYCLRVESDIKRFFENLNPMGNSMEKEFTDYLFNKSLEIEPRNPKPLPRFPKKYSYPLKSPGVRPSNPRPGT

pERK in MKN1 cells = assay: pERK inhibition, In-Cell Western (LI-COR Odyssey), MKN1 cells; type: cell-based; conditions: Homo sapiens, MKN-1, Table B; MKN1 or H358 cells (table does not say which); 0.5-1 hour incubation; read-out: IC50 (nM), pERK inhibition
In short: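 MKN1 cells were exposed for about 0.5–1 h at 37 °C to nine 3-fold dilutions starting at 10 µM. Cells were then fixed in formaldehyde, permeabilised with methanol, and immunostained for pERK and GAPDH with near-infrared secondary antibodies. GAPDH-normalised pERK signal relative to vehicle gave % inhibition, from which IC50 was fitted.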

| SMILES | Ki [1] [nM] | IC50 (pERK in MKN1 cells) [nM] |
| --- | --- | --- |
| Cc1c(C#N)cccc1[C@@H](C)Nc1nnc(C)c2cnc(N3CCN(C(=O)[C@H]4CCCN4C)CC3)cc12 [Example 2-1, 2-methyl-3-((R)-1-((4-methyl-7-(4-(methyl-D-prolyl)piperazin-1-yl)pyrido[3,4-d]pyridazin-1-yl)amino)ethyl)benzonitrile] | 0.458 | 551 |
| Cc1c(C#N)cccc1[C@@H](C)Nc1nnc(C)c2cnc(N3CCN(C(=O)[C@@H]4CCCN4C)CC3)cc12 [Example 2-2, 2-methyl-3-((R)-1-((4-methyl-7-(4-(methyl-L-prolyl)piperazin-1-yl)pyrido[3,4-d]pyridazin-1-yl)amino)ethyl)benzonitrile] | 0.845 | 456 |
| Cc1c(C#N)cccc1[C@@H](C)Nc1nnc(C)c2cnc(N3CCN(C(=O)[C@H]4CCCN4)CC3)cc12 [Example 2-3, 3-((R)-1-((7-(4-(D-prolyl)piperazin-1-yl)-4-methylpyrido[3,4-d]pyridazin-1-yl)amino)ethyl)-2-methylbenzonitrile] | 0.32 | 656 |
| Cc1c(C#N)cccc1[C@@H](C)Nc1nnc(C)c2cnc(N3CCN(C(=O)[C@@H]4CCCN4)CC3)cc12 [Example 2-4, 3-((R)-1-((7-(4-(L-prolyl)piperazin-1-yl)-4-methylpyrido[3,4-d]pyridazin-1-yl)amino)ethyl)-2-methylbenzonitrile] | 0.816 | 933 |
| Cc1c(C#N)cccc1[C@@H](C)Nc1nnc(C)c2cnc(N3CCN(C(=O)[C@@H]4CCN(C)C4)CC3)cc12 [Example 2-5, 2-methyl-3-((R)-1-((4-methyl-7-(4-((R)-1-methylpyrrolidine-3-carbonyl)piperazin-1-yl)pyrido[3,4-d]pyridazin-1-yl)amino)ethyl)benzonitrile] | 0.743 | 1050 |
| Cc1c(C#N)cccc1[C@@H](C)Nc1nnc(C)c2cnc(N3CCN(C(=O)[C@H]4CCN(C)C4)CC3)cc12 [Example 2-6, 2-methyl-3-((R)-1-((4-methyl-7-(4-((S)-1-methylpyrrolidine-3-carbonyl)piperazin-1-yl)pyrido[3,4-d]pyridazin-1-yl)amino)ethyl)benzonitrile] | 0.481 | 869 |
| Cc1c(C#N)cccc1[C@@H](C)Nc1nnc(C)c2cnc(N3CCN(C(=O)[C@@H]4CCCCN4C)CC3)cc12 [Example 2-7, 2-methyl-3-((R)-1-((4-methyl-7-(4-((S)-1-methylpiperidine-2-carbonyl)piperazin-1-yl)pyrido[3,4-d]pyridazin-1-yl)amino)ethyl)benzonitrile] | 0.545 | 139 |
| Cc1c(C#N)cccc1[C@@H](C)Nc1nnc(C)c2cnc(N3CCN(C(=O)[C@H]4CCCCN4C)CC3)cc12 [Example 2-8, 2-methyl-3-((R)-1-((4-methyl-7-(4-((R)-1-methylpiperidine-2-carbonyl)piperazin-1-yl)pyrido[3,4-d]pyridazin-1-yl)amino)ethyl)benzonitrile] | 0.67 | 211 |
| Cc1c(C#N)cccc1[C@@H](C)Nc1nnc(C)c2cnc(-c3ccc(CN(C)C)cc3)cc12 [Example 3-1, (R)-3-(1-((7-(4-((dimethylamino)methyl)phenyl)-4-methylpyrido[3,4-d]pyridazin-1-yl)amino)ethyl)-2-methylbenzonitrile] | 6.11 | 192 |
| Cc1c(C#N)cccc1[C@@H](C)Nc1nnc(C)c2cnc(C3=CCN(C)CC3)cc12 [Example 3-2, (R)-2-methyl-3-(1-((4-methyl-7-(1-methyl-1,2,3,6-tetrahydropyridin-4-yl)pyrido[3,4-d]pyridazin-1-yl)amino)ethyl)benzonitrile] | 11.5 | 124 |
| CCN1CCN(c2cc3c(N[C@H](C)c4cccc(C#N)c4C)nnc(C)c3cc2F)CC1 [Example 4-1, (R)-3-(1-((7-(4-ethylpiperazin-1-yl)-6-fluoro-4-methylphthalazin-1-yl)amino)ethyl)-2-methylbenzonitrile] | 1.73 | 82.7 |
